Test systems include UACC-62 melanoma; OVCAR-3 ovarian; NCI-H522 lung; HOP-62 NSCLC; LOX IMVI melanoma; NCI-H460 lung; SNB-19 CNS; OVCAR-4 ovarian; MDA-MB-231 breast; DU-145 prostate.
What all share (test): DTP human tumour cell line panel, 48 h

Molecules are shown by their SMILES.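 Growth conditions: 96-well plates. Treatment: test compound, 48 hours, 5 concentrations. Analysis: linear interpolation between bracketing concentrations; unreached endpoints set to highest concentration. Here, GI50 denotes the concentration required for 50% inhibition of growth. Definition used: TGI = concentration required for complete inhibition of growth.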

The TGI is the concentration at which net growth stops. Read a high TGI as less potent growth arrest. As usually defined, the GI50 is the concentration giving 50% growth inhibition.

Regarding `Nc1cc(=O)[nH]c(SC2=NC(N)CC(O)C2)n1` (configuration not stated), the TGI in the assay on UACC-62 melanoma, in the assay on OVCAR-3 ovarian, in the assay on NCI-H522 lung, in the assay with HOP-62 NSCLC, in the assay on LOX IMVI melanoma and in the assay with NCI-H460 lung was greater than 100 µM in each case. The TGI with SNB-19 CNS and in the assay on OVCAR-4 ovarian was greater than 100 µM each time.

Take `CCCC(O)[C@@H](O)c1ccc2c(c1O)C(=O)c1c(OC)cccc1C2=O` (some centres not stated): the total growth inhibition concentration (TGI) is 61.8 µM with UACC-62 melanoma; greater than 100 µM in the assay with OVCAR-3 ovarian; 42.1 µM in the assay with NCI-H522 lung; greater than 100 µM in the assay with HOP-62 NSCLC; 80.4 µM with LOX IMVI melanoma; greater than 100 µM with NCI-H460 lung. Further, the TGI with SNB-19 CNS and in the assay on OVCAR-4 ovarian was greater than 100 µM throughout.

As for `COC(=O)CCC(=O)N1Cc2cc(C)ccc2N(C(=O)CCC(=O)OC)Cc2cc(C)ccc21`, the TGI in the assay with UACC-62 melanoma, with OVCAR-3 ovarian, with NCI-H522 lung, in the assay with HOP-62 NSCLC, with LOX IMVI melanoma and with NCI-H460 lung was greater than 100 µM throughout. In the assay on OVCAR-4 ovarian, the TGI was greater than 100 µM.

For `CCOP(=O)(OCC)C1CCCCOC1=O` (configuration not stated), the TGI is greater than 100 µM in the assay with UACC-62 melanoma; greater than 100 µM in the assay with OVCAR-3 ovarian; greater than 100 µM in the assay on HOP-62 NSCLC; 40 µM in the assay with LOX IMVI melanoma; greater than 100 µM in the assay with NCI-H460 lung; greater than 100 µM with SNB-19 CNS. For the same molecule, the TGI with OVCAR-4 ovarian is greater than 100 µM.

As to `CC(=O)OC1c2ccccc2CC2(OC(C)=O)c3ccccc3C12` (configuration not stated), the TGI in the assay with UACC-62 melanoma, in the assay with OVCAR-3 ovarian, in the assay on HOP-62 NSCLC, in the assay with LOX IMVI melanoma, in the assay with NCI-H460 lung and with SNB-19 CNS was greater than 100 µM each time. The TGI in the assay with MDA-MB-231 breast, in the assay on DU-145 prostate and in the assay with OVCAR-4 ovarian was greater than 100 µM in each case.

On to `CCC[CH2][Sn]([CH2]CCC)([O]C(C)=O)[O]C(C)=O`, for which the GI50 is 1.09 µM with UACC-62 melanoma; 1.53 µM in the assay on OVCAR-3 ovarian; 0.147 µM in the assay with NCI-H522 lung; 2.17 µM in the assay on HOP-62 NSCLC; 0.916 µM in the assay on LOX IMVI melanoma; 2.6 µM in the assay with NCI-H460 lung. For the same molecule, the GI50 in the assay with SNB-19 CNS is 1.14 µM; in the assay on OVCAR-4 ovarian, 1.79 µM. In addition, the TGI with UACC-62 melanoma is 2.37 µM; with OVCAR-3 ovarian, 3.02 µM; in the assay on NCI-H522 lung it was 0.324 µM; in the assay on HOP-62 NSCLC, 3.9 µM; with LOX IMVI melanoma, 2.4 µM; in the assay on NCI-H460 lung, 7.55 µM. The TGI worked out at 2.35 µM with SNB-19 CNS and 3.5 µM in the assay on OVCAR-4 ovarian.

For `CN(C)CCCNC(=O)c1cc(NC(=O)CCNS(=O)(=O)c2ccc3c(c2)C(=O)c2ccccc2C3=O)cn1C`, the GI50 in the assay with UACC-62 melanoma, in the assay on OVCAR-3 ovarian, in the assay on NCI-H522 lung, with HOP-62 NSCLC, in the assay with NCI-H460 lung and with SNB-19 CNS was greater than 100 µM each time. Moreover, the GI50 with MDA-MB-231 breast was greater than 100 µM. Further, the TGI with UACC-62 melanoma, in the assay with OVCAR-3 ovarian, with NCI-H522 lung, in the assay with HOP-62 NSCLC, in the assay on NCI-H460 lung and in the assay on SNB-19 CNS was greater than 100 µM throughout. The molecule further showed a TGI in the assay with MDA-MB-231 breast greater than 100 µM.

In the case of `C=C1C(=O)OC2CC3(C)C=CC(=O)C(=C)C3CC12` (configuration not stated), the TGI in the assay on UACC-62 melanoma worked out at 2.92 µM; with OVCAR-3 ovarian, 7.19 µM; in the assay with NCI-H522 lung, 1.69 µM; in the assay with HOP-62 NSCLC, 19.2 µM; with LOX IMVI melanoma, 1.86 µM; in the assay on NCI-H460 lung it was 7.12 µM. In addition, the figures for the concentration for total growth inhibition (TGI) in the assay with SNB-19 CNS and in the assay on OVCAR-4 ovarian were 21.3 µM and 6.55 µM, respectively.

Take `CC1(C)CCC2(C(=O)OC3OC(CO)C(O)C(O)C3O)CC[C@]3(C)C(=CCC4C5(C)CC[C@H](OC6OC(C(=O)O)C(O)C(O)C6O)C(C)(C)C5CCC43C)C2C1` (some centres not stated): the GI50 with UACC-62 melanoma was 0.887 µM; in the assay on OVCAR-3 ovarian, 3.27 µM; in the assay with NCI-H522 lung, 1.72 µM; in the assay with HOP-62 NSCLC, 2.22 µM; in the assay with LOX IMVI melanoma, 0.807 µM; with NCI-H460 lung it was 2.51 µM. Besides, the values for the GI50 with SNB-19 CNS and in the assay on MDA-MB-231 breast were 1.44 µM and 1.15 µM, respectively. For the same molecule, the TGI is 1.92 µM with UACC-62 melanoma; greater than 50 µM in the assay with OVCAR-3 ovarian; 9.71 µM in the assay with NCI-H522 lung; 7.6 µM in the assay with HOP-62 NSCLC; 1.49 µM in the assay on LOX IMVI melanoma; greater than 50 µM in the assay on NCI-H460 lung. In addition, the TGI with SNB-19 CNS amounted to 8.39 µM; with MDA-MB-231 breast, 2.76 µM.

On to `COc1ccccc1[N-]C(C1=C([O-])c2ccccc2C1=O)c1ccccc1.COc1ccccc1[N-]C(C1=C([O-])c2ccccc2C1=O)c1ccccc1.[Cu+2]` (configuration not stated), for which the GI50 with UACC-62 melanoma is 6.66 µM; in the assay with OVCAR-3 ovarian, 13.8 µM; in the assay with HOP-62 NSCLC, 25.2 µM; with LOX IMVI melanoma it was 8.64 µM; with NCI-H460 lung, 6.76 µM; in the assay with SNB-19 CNS it was 23.8 µM. Also, the TGI in the assay on UACC-62 melanoma was 42.4 µM; in the assay with OVCAR-3 ovarian, 54.2 µM; with HOP-62 NSCLC it was 68.6 µM; with LOX IMVI melanoma it was 95.2 µM; in the assay with NCI-H460 lung it was greater than 100 µM; in the assay with SNB-19 CNS, 81.8 µM.

As for `O=C(NCCCCCCNC(=O)c1cccc2ccccc12)c1cccc2ccccc12`, the concentration for total growth inhibition (TGI) in the assay with UACC-62 melanoma is greater than 100 µM; in the assay with OVCAR-3 ovarian it was 71 µM; in the assay on NCI-H522 lung it was greater than 100 µM; in the assay with HOP-62 NSCLC it was 48.3 µM; in the assay on LOX IMVI melanoma, 44.3 µM; in the assay on NCI-H460 lung, greater than 100 µM. For the same molecule, the TGI in the assay with OVCAR-4 ovarian is 58.6 µM.

Consider `O=C1c2ccccc2C(=O)N1CC1(C(=O)O)NCCS1(=O)=O` (configuration not stated), for which the TGI with UACC-62 melanoma, in the assay on OVCAR-3 ovarian, in the assay on NCI-H522 lung, in the assay on HOP-62 NSCLC, in the assay on LOX IMVI melanoma and in the assay on NCI-H460 lung was greater than 100 µM throughout. Also, the TGI with SNB-19 CNS, in the assay on MDA-MB-231 breast and in the assay on OVCAR-4 ovarian was greater than 100 µM throughout.

As to `O=C(CC1Sc2ccccc2NC1=O)Nc1cc(Cl)ccc1Cl` (configuration not stated), the TGI with UACC-62 melanoma, in the assay with OVCAR-3 ovarian, in the assay on LOX IMVI melanoma, in the assay with NCI-H460 lung, in the assay with SNB-19 CNS and in the assay with OVCAR-4 ovarian was greater than 100 µM throughout.

For the origin of these results see PubChem BioAssay (NCI).
